Molecules are shown by their SMILES.

The target of this assay is T1, His6-TEV-PPARγ-(234-505) (Homo sapiens, UniProt P37231).
T1 construct: The His6-TEV-PPARγ-(234-505) protein for assay was expressed and purified; TEV cleavage site (N); made in house
T1 sequence (P37231 234-505): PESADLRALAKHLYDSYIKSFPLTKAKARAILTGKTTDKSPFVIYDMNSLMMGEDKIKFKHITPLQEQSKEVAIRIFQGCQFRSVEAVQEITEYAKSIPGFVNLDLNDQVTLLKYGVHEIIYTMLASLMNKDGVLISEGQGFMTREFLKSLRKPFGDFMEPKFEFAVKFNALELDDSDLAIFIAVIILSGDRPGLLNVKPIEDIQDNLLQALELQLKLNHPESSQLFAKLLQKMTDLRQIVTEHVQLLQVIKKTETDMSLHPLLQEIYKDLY
Nature of the assay: TR-FRET Assay to Measure Co-R Peptide Recruitment to PPARγ. It counts as biochemical. Conditions: Co-R peptide recruitment to PPARγ; read-out: TR-FRET AC50. A digest of the protocol:
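Corepressor recruitment is measured by adding terbium-labeled anti-His antibody and FITC SMRT-ID2 peptide, at 5 and 200 nM final, after a 20-minute room-temperature protein–compound incubation. After one further hour, signal is converted to percent response between DMSO and 500 nM T0070907 wells.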
(TR-FRET usually uses a lanthanide donor and a delayed reading to cut background.)
Regarding `CC1CCC(NC(=O)C2CCN(C(=O)c3cc(-c4ccnc(C(F)(F)F)c4)[nH]n3)CC2)CC1` (stereo not drawn) [N-(4-methylcyclohexyl)-1-{5-[2-(trifluoromethyl)pyridin-4-yl]-1H-pyrazole-3-carbonyl}piperidine-4-carboxamide], the AC50 (as a rule, the concentration at which the activity in the assay is half-maximal) was greater than 1 µM.

Consider `COc1cc(-c2cc(C(=O)N3CCC(C(=O)NCc4cc(F)ccn4)CC3)n[nH]2)c(Cl)cn1` [1-[5-(5-chloro-2-methoxypyridin-4-yl)-1H-pyrazole-3-carbonyl]-N-[(4-fluoropyridin-2-yl)methyl]piperidine-4-carboxamide], for which the AC50 is greater than 1 µM.

In the case of `CC1CCC(NC(=O)C2CCN(C(=O)c3cc(-c4ccnc(N(C)C)c4)[nH]n3)CC2)CC1` (stereo not drawn) [1-{5-[2-(dimethylamino)pyridin-4-yl]-1H-pyrazole-3-carbonyl}-N-(4-methylcyclohexyl)piperidine-4-carboxamide], the AC50 was greater than 1 µM.

As to `COc1cc(-c2cc(C(=O)N3CCC(C(=O)NC4COCOC4)CC3)n[nH]2)c(Cl)cn1` [1-[5-(5-chloro-2-methoxypyridin-4-yl)-1H-pyrazole-3-carbonyl]-N-(1,3-dioxan-5-yl)piperidine-4-carboxamide], the AC50 was greater than 1 µM.

Turning to `O=C(NC1CC1)C1CCCN(C(=O)c2cc(-c3ccncc3)[nH]n2)C1` (stereo not drawn) [N-cyclopropyl-1-[5-(pyridin-4-yl)-1H-pyrazole-3-carbonyl]piperidine-3-carboxamide], the AC50 was greater than 1 µM.

As for `COc1cc(-c2cc(C(=O)N3CCC(C(=O)NC45CC(F)(C4)C5)CC3)n[nH]2)c(Cl)cn1` [1-[5-(5-chloro-2-methoxypyridin-4-yl)-1H-pyrazole-3-carbonyl]-N-{3-fluorobicyclo[1.1.1]pentan-1-yl}piperidine-4-carboxamide], the AC50 is greater than 1 µM.

Turning to `COc1cc(-c2cc(C(=O)N3CCC(C(=O)NCc4ccncn4)CC3)n[nH]2)c(Cl)cn1` [1-[5-(5-chloro-2-methoxypyridin-4-yl)-1H-pyrazole-3-carbonyl]-N-[(pyrimidin-4-yl)methyl]piperidine-4-carboxamide], the concentration at half-maximal activity (AC50) is greater than 1 µM.

Consider `CC1CCC(NC(=O)C2CCN(C(=O)c3cc(-c4ccncn4)[nH]n3)CC2)CC1` (stereo not drawn) [N-(4-methylcyclohexyl)-1-[5-(pyrimidin-4-yl)-1H-pyrazole-3-carbonyl]piperidine-4-carboxamide], for which the AC50 was greater than 1 µM.

Turning to `CCC1CCC(NC(=O)C2CCN(C(=O)c3cc(-c4ccnc(OC)c4)[nH]n3)CC2)CC1` (stereo not drawn), the AC50 was greater than 1 µM.

In the case of `O=C(NCc1ccncc1)C1CCN(C(=O)c2cc(-c3ccncc3)[nH]n2)CC1` [1-[5-(pyridin-4-yl)-1H-pyrazole-3-carbonyl]-N-[(pyridin-4-yl)methyl]piperidine-4-carboxamide], the AC50 was greater than 1 µM.

`O=C(N[C@H]1CC[C@H](c2ccccc2)CC1)C1CCN(C(=O)c2cc(-c3ccncc3)[nH]n2)CC1`: the AC50 is greater than 1 µM.

For `COc1cc(-c2cc(C(=O)N3CCC(C(=O)Nc4cnc(C)cn4)CC3)n[nH]2)c(Cl)cn1` [1-[5-(5-chloro-2-methoxypyridin-4-yl)-1H-pyrazole-3-carbonyl]-N-(5-methylpyrazin-2-yl)piperidine-4-carboxamide], the AC50 was greater than 1 µM.

`COc1cc(-c2cc(C(=O)N3CCC(C(=O)NCC4CCOCO4)CC3)n[nH]2)c(Cl)cn1` (stereo not drawn) [1-[5-(5-chloro-2-methoxypyridin-4-yl)-1H-pyrazole-3-carbonyl]-N-[(1,3-dioxan-4-yl)methyl]piperidine-4-carboxamide]: the AC50 is greater than 1 µM.

`C[C@H]1CC[C@@H](NC(=O)C2CCN(C(=O)c3cc(-c4ccncc4)[nH]n3)CC2)CC1`: the AC50 is greater than 1 µM.

As to `COc1cc(-c2cc(C(=O)N3CCC(C(=O)NC4(c5cccc(Cl)c5)CC4)CC3)n[nH]2)c(Cl)cn1` [1-[5-(5-chloro-2-methoxypyridin-4-yl)-1H-pyrazole-3-carbonyl]-N-[1-(3-chlorophenyl)cyclopropyl]piperidine-4-carboxamide], the AC50 was greater than 1 µM.

For `COc1cc(-c2cc(C(=O)N3CCC(C(=O)NCc4ccc5ncnn5c4)CC3)n[nH]2)c(Cl)cn1` [1-[5-(5-chloro-2-methoxypyridin-4-yl)-1H-pyrazole-3-carbonyl]-N-({[1,2,4]triazolo[1,5-a]pyridin-6-yl}methyl)piperidine-4-carboxamide], the AC50 was greater than 1 µM.

Take `COc1cc(-c2cc(C(=O)N3CCC(C(=O)NCc4c(C)cc(C)[nH]c4=O)CC3)n[nH]2)c(Cl)cn1` [1-[5-(5-chloro-2-methoxypyridin-4-yl)-1H-pyrazole-3-carbonyl]-N-[(4,6-dimethyl-2-oxo-1,2-dihydropyridin-3-yl)methyl]piperidine-4-carboxamide]: the AC50 is greater than 1 µM.

On to `CNc1cc(-c2cc(C(=O)N3CCC(C(=O)NC4CCC(C)CC4)CC3)n[nH]2)ccn1` (stereo not drawn) [1-{5-[2-(methylamino)pyridin-4-yl]-1H-pyrazole-3-carbonyl}-N-(4-methylcyclohexyl)piperidine-4-carboxamide], for which the AC50 was greater than 1 µM.

On to `COc1cc(-c2cc(C(=O)N3CCC(C(=O)NC4(c5ccccc5)CC4)CC3)n[nH]2)c(F)cn1` [1-[5-(5-fluoro-2-methoxypyridin-4-yl)-1H-pyrazole-3-carbonyl]-N-(1-phenylcyclopropyl)piperidine-4-carboxamide], for which the AC50 was greater than 1 µM.

Regarding `COc1cc(-c2cc(C(=O)N3CCC(C(=O)NCc4nc5c(cnn5C)c(=O)[nH]4)CC3)n[nH]2)c(Cl)cn1` [1-[5-(5-chloro-2-methoxypyridin-4-yl)-1H-pyrazole-3-carbonyl]-N-({1-methyl-4-oxo-1H,4H,5H-pyrazolo[3,4-d]pyrimidin-6-yl}methyl)piperidine-4-carboxamide], the AC50 is greater than 1 µM.

On to `O=C(NC1CCCN(c2ccccc2)C1)C1CCN(C(=O)c2cc(-c3ccncc3)[nH]n2)CC1` (stereo not drawn) [N-(1-phenylpiperidin-3-yl)-1-[5-(pyridin-4-yl)-1H-pyrazole-3-carbonyl]piperidine-4-carboxamide], for which the AC50 was greater than 1 µM.

Take `O=C(NCc1cc(Cl)ccc1Cl)C1CCN(C(=O)c2cc(-c3ccncc3)[nH]n2)CC1` [N-[(2,5-dichlorophenyl)methyl]-1-[5-(pyridin-4-yl)-1H-pyrazole-3-carbonyl]piperidine-4-carboxamide]: the concentration at half-maximal activity (AC50) was greater than 1 µM.

As for `CC1CCC(NC(=O)C2CCN(C(=O)c3cc(-c4ccnc(OC(F)F)c4)[nH]n3)CC2)CC1` (stereo not drawn) [1-{5-[2-(difluoromethoxy)pyridin-4-yl]-1H-pyrazole-3-carbonyl}-N-(4-methylcyclohexyl)piperidine-4-carboxamide], the AC50 is greater than 1 µM.

With `Cc1csc(CNC(=O)C2CCN(C(=O)c3cc(-c4ccncc4)[nH]n3)CC2)n1` [N-[(4-methyl-1,3-thiazol-2-yl)methyl]-1-[5-(pyridin-4-yl)-1H-pyrazole-3-carbonyl]piperidine-4-carboxamide], the AC50 was greater than 1 µM.

Consider `CN(Cc1ccc(C(C)(C)C)cc1)C(=O)C1CCN(C(=O)c2cc(-c3ccncc3)[nH]n2)CC1` [N-[(4-tert-butylphenyl)methyl]-N-methyl-1-[5-(pyridin-4-yl)-1H-pyrazole-3-carbonyl]piperidine-4-carboxamide], for which the AC50 was greater than 1 µM.

`COc1cc(-c2cc(C(=O)N3CCC(C(=O)Nc4cccc(F)c4F)CC3)n[nH]2)c(Cl)cn1` [1-[5-(5-chloro-2-methoxypyridin-4-yl)-1H-pyrazole-3-carbonyl]-N-(2,3-difluorophenyl)piperidine-4-carboxamide]: the AC50 was greater than 1 µM.

For `COc1cc(-c2cc(C(=O)N3CCC(C(=O)NCc4nccc(=O)[nH]4)CC3)n[nH]2)c(Cl)cn1` [1-[5-(5-chloro-2-methoxypyridin-4-yl)-1H-pyrazole-3-carbonyl]-N-[(6-oxo-1,6-dihydropyrimidin-2-yl)methyl]piperidine-4-carboxamide], the AC50 was greater than 1 µM.

In the case of `O=C(Nc1ccc2c(c1)OCCO2)C1CCCN(C(=O)c2cc(-c3ccncc3)[nH]n2)C1` (stereo not drawn) [N-(2,3-dihydro-1,4-benzodioxin-6-yl)-1-[5-(pyridin-4-yl)-1H-pyrazole-3-carbonyl]piperidine-3-carboxamide], the AC50 was greater than 1 µM.

Take `COc1cc(-c2cc(C(=O)N3CCC(C(=O)NCc4c(C)nc5cc(=O)[nH]n5c4C)CC3)n[nH]2)c(Cl)cn1` [1-[5-(5-chloro-2-methoxypyridin-4-yl)-1H-pyrazole-3-carbonyl]-N-({5,7-dimethyl-2-oxo-1H,2H-pyrazolo[1,5-a]pyrimidin-6-yl}methyl)piperidine-4-carboxamide]: the AC50 was greater than 1 µM.

For the compound `O=C(NCC1CC1)C1CCN(C(=O)c2cc(-c3ccncc3)[nH]n2)CC1` [N-(cyclopropylmethyl)-1-[5-(pyridin-4-yl)-1H-pyrazole-3-carbonyl]piperidine-4-carboxamide], the AC50 was greater than 1 µM.

The record behind these values is patent US12606541B2, “PPARg modulators and methods of use” (Eisai R&D Management Co., Ltd., priority 2020, dated 2026).
